Laboratory results: patent US20050215649A1, “Conjugated alphatic dialdehyde disinfecting and sterilizing compositions and methods of using the same” (priority 2004, published 2005)
Like-named read-outs stand apart in the source and are kept apart here.

What was measured:
[1] = system: Mycobacterium bovis BCG; format: cell-based; settings: for time within which biocidal: 0.5% 2-butenedial
[2] = system: spores of B. subtilis; experiment: AOAC Sporicidal Test, B. subtilis spores; format: cell-based; settings: pH 4, 20° C., 24 hours
Experimental: (§1) In this example, a series of aqueous solutions containing from 2 to 0.5% of 2-butenedial, buffered at pH 4 with monopotassium hydrogen phosphate and acetic acid, were tested according to methods described in the AOAC Sporicidal Test to determine their effectiveness against spores of B. subtilis and C. sporogenes at 20° C. in 24 hours.

[3] = system: spores of C. sporogenes; experiment: AOAC Sporicidal Test, C. sporogenes spores; format: cell-based; settings: pH 4, 20° C., 24 hours
Experimental: as §1

[4] = Storage stability of solutions at 25° C., effect of pH; format: physicochemical
Experimental: Solutions containing about 3% of 2-butenedial buffered to pH 3, 5 and 7 were stored at 25° C. for about 3 months to determine the effect of pH on the stability of the solutions.

[5] = Storage stability of solutions at 0-5° C., pH 4; format: physicochemical; settings: pH 4, 0-5° C.
Experimental: Solutions containing about 2.7% of 2-butenedial buffered to pH 4 were stored at 0-5° C. for about 3 months to determine the effect of storage temperature on the stability of the solutions.

[6] = Use life stability at 25° C. for 14 days, effect of pH; format: physicochemical
Experimental: Solutions containing 2% of 2-butenedial buffered to pH 2.5, 3.5 and 4.5 were aged at 25° C. for 14 days to determine the effect of pH on use life stability.

[7] = Solubility in water; format: physicochemical
Excerpt: 2-Butenedial is present in the composition, at use concentration, in amounts of between 0.5% and 1.0% by weight. Higher concentrations, e.g., up to 2%, or lower concentrations, e.g., above 0.25%, could be used if desired. The preferred concentration of 2-butenedial at use dilution is about 0.5% by weight. Higher concentrations of 2-butenedial may be used for shipping the composition to the point of use and the composition could then be diluted with water to the desired use concentration. The limit on the amount of 2-butenedial used in the concentrate composition is a function of the solubility of 2-butenedial in water, which is about 20% w/w. To achieve compositions with greater than 20% w/w, a water miscible co-solvent can be used. Typically, suitable co-solvents include low molecular weight alcohols and glycols. The optimum parameters for any given quantity to be sterilized or disinfected can be determined by routine experimentation using varying concentrations, treatment times, and temperatures as described herein.

[8] = 0.5% (w/w) butenedial, penicylinders
[9] = 1% (w/w) butenedial, penicylinders
[10] = 2% (w/w) butenedial, penicylinders

O=CC=CC=O [2-butenedial, 2-Butenedial]
time within which biocidal ([1]; pH 4, 20° C.): ≤ 30 min
time within which biocidal ([1]; pH 5.5, 20° C.): ≤ 30 min
Percent Reduction of Organisms ([1]; 0.5% (w/w) butenedial, pH 4, 20° C., 5 min): >99.78%
Percent Reduction of Organisms ([1]; 0.5% (w/w) butenedial, pH 4, 20° C., 15 min): >99.996%
Percent Reduction of Organisms ([1]; 0.5% (w/w) butenedial, pH 4, 20° C., 30 min): >100%
Percent Reduction of Organisms ([1]; 0.5% (w/w) butenedial, pH 4, 20° C., 60 min): >100%
Percent Reduction of Organisms ([1]; 0.5% (w/w) butenedial, pH 5.5, 20° C., 5 min): 83.5%
Percent Reduction of Organisms ([1]; 0.5% (w/w) butenedial, pH 5.5, 20° C., 15 min): >99.996%
Percent Reduction of Organisms ([1]; 0.5% (w/w) butenedial, pH 5.5, 20° C., 30 min): >100%
Percent Reduction of Organisms ([1]; 0.5% (w/w) butenedial, pH 5.5, 20° C., 60 min): >100%
Percent Reduction of Organisms ([1]; 1% (w/w) butenedial, pH 4, 20° C., 5 min): >99.97%
Percent Reduction of Organisms ([1]; 1% (w/w) butenedial, pH 4, 20° C., 15 min): >99.997%
Percent Reduction of Organisms ([1]; 1% (w/w) butenedial, pH 4, 20° C., 30 min): >100%
Percent Reduction of Organisms ([1]; 1% (w/w) butenedial, pH 4, 20° C., 60 min): >100%
Percent Reduction of Organisms ([1]; 1% (w/w) butenedial, pH 5.5, 20° C., 5 min): 94.5%
Percent Reduction of Organisms ([1]; 1% (w/w) butenedial, pH 5.5, 20° C., 15 min): >99.997%
Percent Reduction of Organisms ([1]; 1% (w/w) butenedial, pH 5.5, 20° C., 30 min): >100%
Percent Reduction of Organisms ([1]; 1% (w/w) butenedial, pH 5.5, 20° C., 60 min): >100%
Percent Reduction of Organisms ([1]; 2% (w/w) butenedial, pH 4, 20° C., 5 min): >99.98%
Percent Reduction of Organisms ([1]; 2% (w/w) butenedial, pH 4, 20° C., 15 min): >99.998%
Percent Reduction of Organisms ([1]; 2% (w/w) butenedial, pH 4, 20° C., 30 min): >100%
Percent Reduction of Organisms ([1]; 2% (w/w) butenedial, pH 4, 20° C., 60 min): >100%
Percent Reduction of Organisms ([1]; 2% (w/w) butenedial, pH 5.5, 20° C., 5 min): 95%
Percent Reduction of Organisms ([1]; 2% (w/w) butenedial, pH 5.5, 20° C., 15 min): 99.95%
Percent Reduction of Organisms ([1]; 2% (w/w) butenedial, pH 5.5, 20° C., 30 min): >100%
Percent Reduction of Organisms ([1]; 2% (w/w) butenedial, pH 5.5, 20° C., 60 min): >100%
minimum effective concentration ([1]; based on results on spores and tubercular bacteria): 0.5%
Total No. of Positives(Failures/Total No. of Tests) [2, 8]: 0/30
Total No. of Positives(Failures/Total No. of Tests) ([2]; 0.5% (w/w) butenedial, sutures): 0/30
Total No. of Positives(Failures/Total No. of Tests) [2, 9]: 0/30
Total No. of Positives(Failures/Total No. of Tests) ([2]; 1% (w/w) butenedial, sutures): 0/30
Total No. of Positives(Failures/Total No. of Tests) [2, 10]: 0/30
Total No. of Positives(Failures/Total No. of Tests) ([2]; 2% (w/w) butenedial, sutures): 0/30
minimum effective concentration against spores [2]: about 0.5%
Total No. of Positives(Failures/Total No. of Tests) [3, 8]: 1/30
Total No. of Positives(Failures/Total No. of Tests) ([3]; 0.5% (w/w) butenedial, sutures): 0/30
Total No. of Positives(Failures/Total No. of Tests) [3, 9]: 0/30
Total No. of Positives(Failures/Total No. of Tests) ([3]; 1% (w/w) butenedial, sutures): 0/30
Total No. of Positives(Failures/Total No. of Tests) [3, 10]: 0/30
Total No. of Positives(Failures/Total No. of Tests) ([3]; 2% (w/w) butenedial, sutures): 0/30
minimum effective concentration against spores [3]: about 0.5%
Percent (%) Butenedial ([4]; pH 3, 25° C., storage time 0 months): 2.94%
Percent (%) Butenedial ([4]; pH 3, 25° C., storage time 1 month): 2.4%
Percent (%) Butenedial ([4]; pH 3, 25° C., storage time 2 months): 1.77%
Percent (%) Butenedial ([4]; pH 3, 25° C., storage time 3 months): 0.95%
Percent (%) Butenedial ([4]; pH 5, 25° C., storage time 0 months): 2.94%
Percent (%) Butenedial ([4]; pH 5, 25° C., storage time 1 month): 1.06%
Percent (%) Butenedial ([4]; pH 5, 25° C., storage time 2 months): 0.55%
Percent (%) Butenedial ([4]; pH 5, 25° C., storage time 3 months): 0.13%
Percent (%) Butenedial ([4]; pH 7, 25° C., storage time 0 months): 2.94%
Percent (%) Butenedial ([4]; pH 7, 25° C., storage time 1 month): 0.12%
Percent (%) Butenedial ([4]; pH 7, 25° C., storage time 2 months): 0.09%
Percent (%) Butenedial ([4]; pH 7, 25° C., storage time 3 months): 0.06%
acceptable storage stability ([4]; stored as one component at pH 3, 25° C.): about 3 months
% Butenedial ([5]; storage time 0 mo): 2.72%
% Butenedial ([5]; storage time 1 mo): 2.67%
% Butenedial ([5]; storage time 2 mo): 2.68%
% Butenedial ([5]; storage time 3 mo): 2.54%
acceptable use life stability ([6]; 25° C., pH 2.5, 3.5 and 4.5, minimum effective concentration 0.5%): at least 14 days
Percent (%) Butenedial ([6]; pH 2.5, 25° C., use life 0 days): 2.0%
Percent (%) Butenedial ([6]; pH 2.5, 25° C., use life 2 days): 1.94%
Percent (%) Butenedial ([6]; pH 2.5, 25° C., use life 4 days): 1.84%
Percent (%) Butenedial ([6]; pH 2.5, 25° C., use life 7 days): 1.78%
Percent (%) Butenedial ([6]; pH 2.5, 25° C., use life 10 days): 1.7%
Percent (%) Butenedial ([6]; pH 2.5, 25° C., use life 14 days): 1.6%
Percent (%) Butenedial ([6]; pH 3.5, 25° C., use life 0 days): 2.0%
Percent (%) Butenedial ([6]; pH 3.5, 25° C., use life 2 days): 1.92%
Percent (%) Butenedial ([6]; pH 3.5, 25° C., use life 4 days): 1.76%
Percent (%) Butenedial ([6]; pH 3.5, 25° C., use life 7 days): 1.6%
Percent (%) Butenedial ([6]; pH 3.5, 25° C., use life 10 days): 1.5%
Percent (%) Butenedial ([6]; pH 3.5, 25° C., use life 14 days): 1.4%
Percent (%) Butenedial ([6]; pH 4.5, 25° C., use life 0 days): 2.0%
Percent (%) Butenedial ([6]; pH 4.5, 25° C., use life 2 days): 1.73%
Percent (%) Butenedial ([6]; pH 4.5, 25° C., use life 4 days): 1.5%
Percent (%) Butenedial ([6]; pH 4.5, 25° C., use life 7 days): 1.32%
Percent (%) Butenedial ([6]; pH 4.5, 25° C., use life 10 days): 1.0%
Percent (%) Butenedial ([6]; pH 4.5, 25° C., use life 14 days): 0.8%
solubility in water [7]: about 20 % w/w
